The text below walks through data of US9586931B2 (Merck Sharp & Dohme Corp., priority 2012, dated 2017).

The test addresses T1, recombinant human GST-Syk (Homo sapiens, UniProt P43405).
T1 construct: purchased Carna Biosciences 08-176
Nature of the test: Homogeneous Time-Resolved Fluorescence (HTRF) assay for the recombinant human Syk enzyme. The following applies: recombinant human GST-Syk 5 pM, ATP 25 μM, 10-dose titration 10 μM to 0.508 nM; read-out: rhSYK Activity IC50. The class given is biochemical. In outline: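 GST-hSyk fusion protein phosphorylated a peptide for 45 min at room temperature. The reaction was quenched with 2 nM Eu-anti-phosphotyrosine antibody and 70 nM SA-APC in 15 mM Tris pH 7.5, 40 mM EDTA, 0.01% Tween 20. The HTRF signal was read after 30 min.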
`Cc1cc(Nc2cc(C(F)(F)F)ccn2)nc(-c2cn(C(CO)c3ccc(C(N)=O)cc3)nn2)c1` (stereo not shown) [Example 1.9, 4-{2-hydroxy-1-[4-(4-methyl-6-{[4-(trifluoromethyl)pyridin-2-yl]amino}pyridin-2-yl)-1H-1,2,3-triazol-1-yl]ethyl}benzamide]: the IC50 stood at 0.0029 µM. Under `Cc1cc(Nc2cc(C(F)(F)F)ccn2)nc(-c2cn(C3CCNC(=O)CC3)nn2)c1` (racemic) [Example 11.3, 5-[4-(4-methyl-6-{[4-(trifluoromethyl)pyridin-2-yl]amino}pyridin-2-yl)-1H-1,2,3-triazol-1-yl]azepan-2-one] stands 0.118 µM; under `Cc1cc(Nc2cc(C(F)(F)F)ccn2)nc(-c2cn(C(C)C(=O)NCC3(c4ccc(F)cc4)CCOCC3)nn2)c1` (stereo not shown) [Example 1.49, N-{[4-(4-fluorophenyl)tetrahydro-2H-pyran-4-yl]methyl}-2-[4-(4-methyl-6-{[4-(trifluoromethyl)pyridin-2-yl]amino}pyridin-2-yl)-1H-1,2,3-triazol-1-yl]propanamide], 0.404 µM.

For the compound `Cc1cc(Nc2ncc(F)c(C(F)F)n2)cc(-c2cn(CC3CNC(=O)O3)nn2)c1` (single isomer, unassigned) [Example 7.35, 5-{[4-(3-{[4-(difluoromethyl)-5-fluoropyrimidin-2-yl]amino}-5-methylphenyl)-1H-1,2,3-triazol-1-yl]methyl}-1,3-oxazolidin-2-one], the IC50 was determined as 0.0076 µM. Consider `Cc1cc(Nc2nccc(C)n2)cc(-c2cn(CC(C)(O)C(C)(C)O)nn2)c1` (stereo not shown) [Example 21.35, 2,3-dimethyl-1-(4-{3-methyl-5-[(4-methylpyrimidin-2-yl)amino]phenyl}-1H-1,2,3-triazol-1-yl)butane-2,3-diol], for which the IC50 was 0.0839 µM. Under `Cc1cc(Nc2nccc(C(F)F)n2)cc(-c2cn(CC3CNC(=O)O3)nn2)c1` (single isomer, unassigned) [Example 7.5, 5-((4-(3-((4-(difluoromethyl)pyrimidin-2-yl)amino)-5-methylphenyl)-1H-1,2,3-triazol-1-yl)methyl)oxazolidin-2-one] stands 0.0071 µM; under `Cc1cc(Nc2nccc(C(F)(F)F)n2)cc(-n2ccnn2)c1` [Example 15.11, N-[3-methyl-5-(1H-1,2,3-triazol-1-yl)phenyl]-4-(trifluoromethyl)pyrimidin-2-amine], 0.102 µM. Under `Cc1cc(Nc2cc(C(F)(F)F)ccn2)nc(-c2cn(C3CCC(C(N)=O)C(C)(C)C3)nn2)c1` (single isomer, unassigned) [Example 1.8, 2,2-dimethyl-4-[4-(4-methyl-6-{[4-(trifluoromethyl)pyridin-2-yl]amino}pyridin-2-yl)-1H-1,2,3-triazol-1-yl]cyclohexanecarboxamide] stands 0.0058 µM; under `Cc1cc(Nc2cc(C(F)(F)F)ccn2)nc(-c2cn(C(C)C(=O)N[C@@H](CO)Cc3ccccc3)nn2)c1` (stereo partly drawn) [Example 1.27, N-[(1R)-1-benzyl-2-hydroxyethyl]-2-[4-(4-methyl-6-{[4-(trifluoromethyl)pyridin-2-yl]amino}pyridin-2-yl)-1H-1,2,3-triazol-1-yl]propanamide], 0.102 µM. Under `Cc1cc(Nc2nccc(C(F)F)n2)cc(-c2cn(C(C)C3CNC(=O)O3)nn2)c1` (single isomer, unassigned) [Example 7.3, 5-(1-(4-(3-((4-(difluoromethyl)pyrimidin-2-yl)amino)-5-methylphenyl)-1H-1,2,3-triazol-1-yl)ethyl)oxazolidin-2-one] stands 0.0055 µM. Consider `CC(=O)N1CCN(C(=O)Cn2cc(-c3cc(C)cc(Nc4nccc(C(F)(F)F)n4)c3)nn2)CC1` [Example 5.59, N-(3-{1-[2-(4-acetylpiperazin-1-yl)-2-oxoethyl]-1H-1,2,3-triazol-4-yl}-5-methylphenyl)-4-(trifluoromethyl)pyrimidin-2-amine], for which the IC50 was 0.0698 µM.

As to `Cc1cc(Nc2cc(C(F)(F)F)ccn2)nc(-c2cn(C(C(N)=O)c3ccccc3)nn2)c1` (stereo not shown) [Example 1.18, 2-[4-(4-methyl-6-{[4-(trifluoromethyl)pyridin-2-yl]amino}pyridin-2-yl)-1H-1,2,3-triazol-1-yl]-2-phenylacetamide], the IC50 is 0.0118 µM. As for `Cc1cc(Nc2cc(C(F)F)ccn2)nc(-c2cn(CC3OC(=O)NC3C)nn2)c1` (single isomer, unassigned) [Example 7.14, 5-((4-(6-((4-(difluoromethyl)pyridin-2-yl)amino)-4-methylpyridin-2-yl)-1H-1,2,3-triazol-1-yl)methyl)-4-methyloxazolidin-2-one], the IC50 was determined as 0.0016 µM. Under `Cc1cc(Nc2cc(C(F)(F)F)ccn2)nc(-c2cn([C@@H](C)C(=O)N3CCC[C@H]3C(=O)O)nn2)c1` [Example 3.13, 1-{(2S)-2-[4-(4-methyl-6-{[4-(trifluoromethyl)pyridin-2-yl]amino}pyridin-2-yl)-1H-1,2,3-triazol-1-yl]propanoyl}proline] stands 0.095 µM; under `Cc1cc(Nc2cc(C(F)(F)F)ccn2)nc(-c2cn(C/C=C/c3ccccc3)nn2)c1` [Example 5.35, 4-methyl-6-{1-[(2E)-3-phenylprop-2-en-1-yl]-1H-1,2,3-triazol-4-yl}-N-[4-(trifluoromethyl)pyridin-2-yl]pyridin-2-amine], 0.3 µM.

As for `COc1ccc(OC)c(C(O)C(C)NC(=O)C(C)n2cc(-c3cc(C)cc(Nc4cc(C(F)(F)F)ccn4)n3)nn2)c1` (stereo not shown) [Example 1.38, N-[2-(2,5-dimethoxyphenyl)-2-hydroxy-1-methylethyl]-2-[4-(4-methyl-6-{[4-(trifluoromethyl)pyridin-2-yl]amino}pyridin-2-yl)-1H-1,2,3-triazol-1-yl]propanamide], the IC50 is 0.635 µM. Under `Cc1cc(Nc2cc(C(F)(F)F)ccn2)nc(-c2cn(C(C)C(=O)NCCc3c[nH]c4ccccc34)nn2)c1` (stereo not shown) [Example 1.29] stands 0.124 µM; under `Cc1cc(Nc2nccc(C(F)(F)F)n2)cc(-n2cc(C3(O)CCNC(=O)CC3)nn2)c1` (stereo not shown) [Example 11.4, 5-hydroxy-5-[1-(3-methyl-5-{[4-(trifluoromethyl)pyrimidin-2-yl]amino}phenyl)-1H-1,2,3-triazol-4-yl]azepan-2-one], 0.161 µM. Under `CCOC(=O)Cn1cc(-c2cc(C)cc(Nc3cc(C(F)(F)F)ccn3)n2)nn1` [Example 5.100, ethyl [4-(4-methyl-6-{[4-(trifluoromethyl)pyridin-2-yl]amino}pyridin-2-yl)-1H-1,2,3-triazol-1-yl]acetate] stands 0.0277 µM. Under `Cc1cc(Nc2cc(C(F)(F)F)ccn2)nc(-c2cn(C3CN(C(=O)C(C)O)CC3O)nn2)c1` (single isomer, unassigned) [Example 13.2, 1-[2-hydroxypropanoyl]-4-[4-(4-methyl-6-{[4-(trifluoromethyl)pyridin-2-yl]amino}pyridin-2-yl)-1H-1,2,3-triazol-1-yl]pyrrolidin-3-ol] stands 0.0236 µM; under `Cc1cc(Nc2cc(C(F)(F)F)ccn2)nc(-c2cn(C3CCCCC(O)C3O)nn2)c1` (single isomer, unassigned) [Example 10.4, 3-[4-(4-methyl-6-{[4-(trifluoromethyl)pyridin-2-yl]amino}pyridin-2-yl)-1H-1,2,3-triazol-1-yl]cycloheptane-1,2-diol], 0.0033 µM; under `Cc1cc(Nc2cc(C(F)(F)F)ccn2)nc(-c2cn(C3C=CCCC3)nn2)c1` (stereo not shown) [Example 5.36, 6-(1-cyclohex-2-en-1-yl-1H-1,2,3-triazol-4-yl)-4-methyl-N-[4-(trifluoromethyl)pyridin-2-yl]pyridin-2-amine], 0.052 µM.
